Data from US7390836B2, “Small molecules used to increase cell death” (priority 1999, dated 2008).

What was measured:
[1] = system: BH3/Bcl-xL binding; assay: SELDI binding assay, unlabeled Bak BH3 peptide on immobilized Bcl-xL-His6
Description: To test the possibility that BH3Is target the OREGON GREEN moiety of the fluorescently labeled BH3 peptide, a novel BH3/Bcl-xL binding assay using unlabeled BH3 peptide was designed. In this assay Bcl-xL was covalently attached to a surface-enhanced laser desorption/ionization (SELDI) chip, and binding of the unlabelled BH3 peptide to the immobilized protein was monitored by mass spectrometry. Specifically, purified recombinant GST-Bcl-2 and BCL-xL-His6 were coupled through their primary amines to SELDI chip surfaces derivatized with carbonyldiimidazole (Ciphergen). Bak BH3 peptide was then added (in a total volume of 1 μl) for 12 hours at 4° C. in a humidified chamber, to allow binding to each spot of the SELDI chip. The chip was then washed with alternating high and low pH-0.1M sodium acetate with 0.5M NaCl, followed by 0.01M HEPES; pH 7.3. The samples were embedded in α-cyanno-4-hydroxycinnamaic acid matrix and analyzed for mass by MALDI TOF. An average of 100 laser shots at a constant setting were collected over 20 spots in each sample.

[2] = biological target: T1, Bcl-xL (Homo sapiens, UniProt Q07817, DEL45-84); assay: Bcl-xL pore formation, carboxyfluorescein release from liposomes; format: biochemical; details: 5 μM Bcl-xL-His6, pH 4.0
T1 construct: His6 (C); made in house
T1 sequence (Q07817 with tags, fused parts or gaps DEL45-84 limits assumed): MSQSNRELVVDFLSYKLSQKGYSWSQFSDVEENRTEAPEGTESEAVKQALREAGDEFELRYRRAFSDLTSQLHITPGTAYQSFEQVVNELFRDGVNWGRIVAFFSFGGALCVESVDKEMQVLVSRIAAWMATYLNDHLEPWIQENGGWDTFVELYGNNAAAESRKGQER
Description: Bcl-xL forms membrane pores, and the formation of these pores may play a role in Bcl-xL's ability to regulate apoptosis. Thus, the effects of the BH3Is on pore formation by Bcl-xL were tested (Minn, et al., Nature 385:353-7, 1997; Schendel et al., Proc. Natl. Acad. Sci. USA 94:5113-8, 1997; Minn et al., EMBO J. 18:632-43,1999; and Matsuyama et al., J. Biol. Chem. 273:30995-1001, 1998). Liposomes containing 20 mM of 5,6-carboxyfluorescein were prepared as previously described (Antonsson, et al., Science 277:370-2,1997). For Bcl-xL pore formation 5 μM Bcl-xL-His6 was preincubated with BH3I-2 or Bak BH3 peptide in 50 μl of 5 mM sodium citrate, 150 mM NaCl, pH 4.0 buffer for 10 min at 25° C., followed by addition of 5 μl of undiluted liposomes. Prior to determination of the fluorescence pH was adjusted by adding 10 μl of 1.5 M Tris-HCl, pH 7.5.

KGGGQVGRQLAIIGDDINR (SEQ ID NO: 2) (BAK) [BH3 peptide, nineteen amino acid Bak peptide corresponding to the BH3 domain of Bak, reference compound]
binding of BH3 peptide to Bcl-xL-modified surface [1]: bound to the Bcl-xL-modified surface in a dose-dependent fashion | Bcl-xL-mediated release of carboxyfluorescein from liposomes [2]: Neither BH3Is nor BH3 peptide affected
